Measured values as given in patent US8802597B2, “Herbicidal pyrimidines” (E I du Pont de Nemours and Company, priority 2003, dated 2014).

Columns and labels:
Type in all cases: in vivo
[1] = tested on: chickweed (Stellaria media); assay: Test C postemergence; conditions: for Chickweed plant response rating: scale 0 to 100 (0 no effect, 100 complete control); for Plant response rating, Chickweed: scale 0 to 100
Procedure, shortened: (§1)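 Injury scored visually 12–14 days after application on 0–100 scale (100 = complete control), relative to controls. Compounds, formulated with surfactant in non-phytotoxic solvent, applied to soil at planting (pre) or to 1- to 4-leaf plants 2–18 cm tall (post) in greenhouse.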

[2] = tested on: yellow nutsedge (Cyperus esculentus); assay: Test C pre/postemergence; conditions: for Nutsedge, Yellow plant response rating: scale 0 to 100 (0 no effect, 100 complete control)
Procedure, shortened: as §1

[3] = tested on: common (oilseed) sunflower (Helianthus annuus); assay: Test C pre/postemergence; conditions: Preemergence
Procedure, shortened: as §1

[4] = tested on: morningglory (Ipomoea coccinea); assay: Test C pre/postemergence; conditions: for Morningglory plant response rating: scale 0 to 100 (0 no effect, 100 complete control)
Procedure, shortened: as §1

[5] = tested on: woolly cupgrass (Eriochloa villosa); assay: Test C pre/postemergence; conditions: for Cupgrass, Woolly plant response rating: scale 0 to 100 (0 no effect, 100 complete control)
Procedure, shortened: as §1

[6] = tested on: soybean (Glycine max); assay: Test C pre/postemergence; conditions: for Soybean plant response rating: scale 0 to 100 (0 no effect, 100 complete control)
Procedure, shortened: as §1

[7] = tested on: johnsongrass (Sorghum halepense); assay: Test C pre/postemergence; conditions: for Johnsongrass plant response rating: scale 0 to 100 (0 no effect, 100 complete control); for Plant response rating, Johnsongrass: scale 0 to 100
Procedure, shortened: as §1

[8] = tested on: Surinam grass (Brachiaria decumbens); assay: Test C pre/postemergence; conditions: for Surinam Grass plant response rating: scale 0 to 100 (0 no effect, 100 complete control)
Procedure, shortened: as §1

[9] = tested on: kochia (Kochia scoparia); assay: Test C pre/postemergence; conditions: for Kochia plant response rating: scale 0 to 100 (0 no effect, 100 complete control)
Procedure, shortened: as §1

[10] = tested on: common ragweed (Ambrosia elatior); assay: Test C pre/postemergence; conditions: for Ragweed plant response rating: scale 0 to 100 (0 no effect, 100 complete control)
Procedure, shortened: as §1

[11] = tested on: giant foxtail (Setaria faberii); assay: Test C pre/postemergence; conditions: for Foxtail, Giant plant response rating: scale 0 to 100 (0 no effect, 100 complete control)
Procedure, shortened: as §1

[12] = tested on: pigweed (Amaranthus retroflexus); assay: Test C pre/postemergence; conditions: for Pigweed plant response rating: scale 0 to 100 (0 no effect, 100 complete control)
Procedure, shortened: as §1

[13] = Postemergence, 250 g ai/ha, scale 0 to 100
[14] = Postemergence, 500 g ai/ha, scale 0 to 100
[15] = Preemergence, 62 g ai/ha, scale 0 to 100, 0 no effect, 100 complete control
[16] = Preemergence, 125 g ai/ha, scale 0 to 100
[17] = Preemergence, 250 g ai/ha, scale 0 to 100
[18] = Preemergence, 500 g ai/ha, scale 0 to 100

COC(=O)c1nc(C2CC2C)nc(N)c1Br (stereo not shown) [Compound 28]
Chickweed plant response rating ([1]; 62 g ai/ha): 0 | Chickweed plant response rating ([1]; 125 g ai/ha): 0 | Plant response rating, Chickweed ([1]; 250 g ai/ha): 15 | Plant response rating, Chickweed ([1]; 500 g ai/ha): 20 | Nutsedge, Yellow plant response rating ([2]; Postemergence, 62 g ai/ha): 0 | Nutsedge, Yellow plant response rating ([2]; Postemergence, 125 g ai/ha): 0 | Plant response rating, Nutsedge, Yellow [2, 13]: 0 | Plant response rating, Nutsedge, Yellow [2, 14]: 0 | Plant response rating, Nutsedge, Yellow [2, 15]: 0 | Plant response rating, Nutsedge, Yellow [2, 16]: 0 | Plant response rating, Nutsedge, Yellow [2, 17]: 0 | Plant response rating, Nutsedge, Yellow [2, 18]: 0 | Plant response rating, Sunflower ([3]; 62 g ai/ha, scale 0 to 100, 0 no effect, 100 complete control): 45 | Plant response rating, Sunflower ([3]; 125 g ai/ha, scale 0 to 100): 50 | Plant response rating, Sunflower ([3]; 250 g ai/ha, scale 0 to 100): 100 | Plant response rating, Sunflower ([3]; 500 g ai/ha, scale 0 to 100): 100 | Morningglory plant response rating ([4]; Postemergence, 62 g ai/ha): 80 | Morningglory plant response rating ([4]; Postemergence, 125 g ai/ha): 95 | Plant response rating, Morningglory [4, 13]: 95 | Plant response rating, Morningglory [4, 14]: 95 | Plant response rating, Morningglory [4, 15]: 100 | Plant response rating, Morningglory [4, 16]: 100 | Plant response rating, Morningglory [4, 17]: 100 | Plant response rating, Morningglory [4, 18]: 100 | Cupgrass, Woolly plant response rating ([5]; Postemergence, 62 g ai/ha): 0 | Cupgrass, Woolly plant response rating ([5]; Postemergence, 125 g ai/ha): 0 | Plant response rating, Cupgrass, Woolly [5, 13]: 0 | Plant response rating, Cupgrass, Woolly [5, 14]: 0 | Plant response rating, Cupgrass, Woolly [5, 15]: 0 | Plant response rating, Cupgrass, Woolly [5, 16]: 0 | Plant response rating, Cupgrass, Woolly [5, 17]: 0 | Plant response rating, Cupgrass, Woolly [5, 18]: 0 | Soybean plant response rating ([6]; Postemergence, 62 g ai/ha): 75 | Soybean plant response rating ([6]; Postemergence, 125 g ai/ha): 85 | Plant response rating, Soybean [6, 13]: 95 | Plant response rating, Soybean [6, 14]: 95 | Plant response rating, Soybean [6, 15]: 0 | Plant response rating, Soybean [6, 16]: 45 | Plant response rating, Soybean [6, 17]: 65 | Plant response rating, Soybean [6, 18]: 90 | Johnsongrass plant response rating ([7]; Postemergence, 62 g ai/ha): 0 | Johnsongrass plant response rating ([7]; Postemergence, 125 g ai/ha): 0 | Plant response rating, Johnsongrass ([7]; Postemergence, 250 g ai/ha): 0 | Plant response rating, Johnsongrass ([7]; Postemergence, 500 g ai/ha): 0 | Plant response rating, Johnsongrass ([7]; Preemergence, 250 g ai/ha): 0 | Surinam Grass plant response rating ([8]; Postemergence, 62 g ai/ha): 0 | Surinam Grass plant response rating ([8]; Postemergence, 125 g ai/ha): 0 | Plant response rating, Surinam Grass [8, 13]: 0 | Plant response rating, Surinam Grass [8, 14]: 0 | Plant response rating, Surinam Grass [8, 15]: 0 | Plant response rating, Surinam Grass [8, 16]: 0 | Plant response rating, Surinam Grass [8, 17]: 0 | Plant response rating, Surinam Grass [8, 18]: 0 | Kochia plant response rating ([9]; Postemergence, 62 g ai/ha): 75 | Kochia plant response rating ([9]; Postemergence, 125 g ai/ha): 85 | Plant response rating, Kochia [9, 13]: 95 | Plant response rating, Kochia [9, 14]: 95 | Plant response rating, Kochia [9, 15]: 0 | Plant response rating, Kochia [9, 16]: 80 | Plant response rating, Kochia [9, 17]: 90 | Plant response rating, Kochia [9, 18]: 100 | Ragweed plant response rating ([10]; Postemergence, 62 g ai/ha): 65 | Ragweed plant response rating ([10]; Postemergence, 125 g ai/ha): 80 | Plant response rating, Ragweed [10, 13]: 90 | Plant response rating, Ragweed [10, 14]: 95 | Plant response rating, Ragweed [10, 15]: 65 | Plant response rating, Ragweed [10, 16]: 95 | Plant response rating, Ragweed [10, 17]: 100 | Plant response rating, Ragweed [10, 18]: 100 | Foxtail, Giant plant response rating ([11]; Postemergence, 62 g ai/ha): 0 | Foxtail, Giant plant response rating ([11]; Postemergence, 125 g ai/ha): 0 | Plant response rating, Foxtail, Giant [11, 13]: 0 | Plant response rating, Foxtail, Giant [11, 14]: 15 | Plant response rating, Foxtail, Giant [11, 15]: 0 | Plant response rating, Foxtail, Giant [11, 16]: 0 | Plant response rating, Foxtail, Giant [11, 17]: 0 | Plant response rating, Foxtail, Giant [11, 18]: 0 | Pigweed plant response rating ([12]; Postemergence, 62 g ai/ha): 30 | Pigweed plant response rating ([12]; Postemergence, 125 g ai/ha): 35 | Plant response rating, Pigweed [12, 13]: 60 | Plant response rating, Pigweed [12, 14]: 75 | Plant response rating, Pigweed [12, 15]: 80 | Plant response rating, Pigweed [12, 16]: 95 | Plant response rating, Pigweed [12, 17]: 100 | Plant response rating, Pigweed [12, 18]: 100
